This is an account of results in PubChem BioAssay (NCI).

Holding throughout (assay): NCI anticancer screen, dose series, 48 h
The subject of experiment [1] is 786-0 renal.
In experiment [2] the test system is ACHN renal.
Experiment [3] relates to CCRF-CEM leukemia.
The subject of experiment [4] is HL-60(TB) leukemia.
The subject of experiment [5] is HOP-62 NSCLC.
Experiment [6] has as its system NCI-H23 lung.
Experiment [7] concerns RXF 393 renal.
For experiment [8], the system named is SNB-75 CNS.
For experiment [9], the system named is MDA-MB-231 breast.
Experiment [10] concerns PC-3 prostate.

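Method: 48-hour compound exposure of cells in 96-well plates, five concentrations, linear interpolation of endpoints. GI50 marks 50% less growth. Definition used: TGI = concentration required for complete inhibition of growth.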 Some results are limits rather than exact numbers.

Regarding `COC(=O)C(=C\Sc1ccccc1)/C=C/C(=O)OC(C)(C)C`, the TGI came out at 10.9 µM in [1]; 17.2 µM in [2]; 5.35 µM in experiment [3]; 3.73 µM in experiment [4]; 34.8 µM in experiment [5]; 33.1 µM in experiment [6]. Besides, the TGI in experiment [7] worked out at 7.7 µM; in [8], 28.5 µM.
Regarding `Cc1cc(N2CCOCC2)nc(N(CCNc2ccnc3cc(Cl)ccc23)Cc2ccco2)n1`, the GI50 in [1] was 2.14 µM; in [2], 3.46 µM; in experiment [3], 3.18 µM; in experiment [5] it was 3.62 µM; in experiment [9] it was 3.16 µM; in [6], 5.58 µM. In addition, the GI50 is 4.38 µM in experiment [10], 1.64 µM in experiment [7] and 2.59 µM in experiment [8]. Moreover, the TGI is 4.91 µM in experiment [1]; 15.3 µM in experiment [2]; greater than 100 µM in [3]; 31.3 µM in experiment [5]; 13.4 µM in [9]; 35.4 µM in experiment [6]. Besides, the figures for the TGI in experiment [10], in experiment [7] and in experiment [8] were 20.6 µM, 4.29 µM and 7.77 µM, respectively.
For the compound `COC(=O)C1=C2C3=C(C(=O)c4ccccc4C3=O)N(Cc3ccccc3)C2(OC(C)=O)C=CC1=O` (stereo not drawn), the GI50 is 2.28 µM in experiment [1]; 8.4 µM in [2]; 0.378 µM in experiment [3]; 2.94 µM in experiment [5]; 11.8 µM in [6]; 2.36 µM in experiment [10]. Also, in [8], the GI50 is 40.3 µM. Further, the TGI in experiment [1] is 10.1 µM; in experiment [2], 26.4 µM; in experiment [3], greater than 100 µM; in experiment [5] it was 13.7 µM; in experiment [9] it was 8.05 µM; in [6], 76.6 µM. The TGI was 19.2 µM in experiment [10] and greater than 100 µM in experiment [8].
Consider `S=c1cn[nH]c2ccc(Br)cc12`, for which the TGI in [1], in experiment [2], in [3], in experiment [4], in experiment [5] and in experiment [9] was greater than 100 µM throughout. Moreover, the TGI in [6] is greater than 100 µM; in experiment [7], 70.7 µM; in [8], greater than 100 µM.
For the compound `O=S1Cc2ccccc2CS1` (stereo not drawn), the TGI is 29.2 µM in experiment [1]; greater than 100 µM in experiment [2]; 40.9 µM in experiment [4]; 28.3 µM in [6]; 29.5 µM in [7]; 61.5 µM in experiment [8].
Turning to `Cc1ccc(/C=C/C(=O)c2sc(C(N)=S)nc2C)cc1`, the TGI in [1], in experiment [2], in [3], in experiment [4], in experiment [5] and in experiment [6] was greater than 100 µM each time. In addition, the TGI in experiment [7] and in [8] was greater than 100 µM in each case.
Take `Cc1cc(=O)[nH]c(CNC(=O)c2cccc3ccccc23)n1`: the TGI in [1], in [2], in experiment [3], in [4], in [5] and in [6] was greater than 100 µM throughout. The TGI in experiment [7] and in [8] was greater than 100 µM throughout.
On to `O=C(Nc1cccc(-n2cc(-c3ccncc3)c(-c3cc(O)cc(Cl)c3)n2)c1)Nc1ccc(Cl)c(Cl)c1`, for which the GI50 in [1] is 1.48 µM; in [2], 2.21 µM; in [5], 2.82 µM; in experiment [9] it was 1.01 µM; in [6], 2.41 µM; in experiment [10], 1.69 µM. Also, the GI50 in [7] was 0.555 µM; in experiment [8] it was 1.38 µM. The TGI in [1] stood at 3.71 µM; in experiment [2], 8.71 µM; in experiment [5] it was 8.51 µM; in experiment [9] it was 7.7 µM; in experiment [6], 6.29 µM; in experiment [10], 5.68 µM. The TGI came to 2.46 µM in experiment [7] and 4.82 µM in [8].
Take `COC(=O)C1C(=O)O[C@@H](c2ccc(OC)cc2)C1C(=O)OC` (stereo partly drawn): the TGI in experiment [1], in [2], in [3], in experiment [5], in experiment [6] and in [7] was greater than 100 µM throughout. For the same compound, the TGI in experiment [8] was greater than 100 µM.
As to `CC12Oc3ccc4ccccc4c3C1c1c(ccc3ccccc13)O2` (stereo not drawn), the TGI in experiment [1], in [2], in [3], in [6], in [7] and in experiment [8] was greater than 100 µM in each case.
For `Cn1c(O)c(C=N)c(=O)n(C)c1=O`, the TGI in experiment [1], in experiment [2], in experiment [3], in [4], in experiment [6] and in [7] was greater than 100 µM each time. Besides, the TGI in [8] was greater than 100 µM.
For the compound `CC(=O)N(/N=C\c1ccc([N+](=O)[O-])cc1)c1ccccc1`, the TGI in experiment [1], in experiment [2], in [3], in experiment [5], in [6] and in experiment [8] was greater than 100 µM in each case.
On to `C=CC[Se]C(=O)c1ccccc1OC(C)=O`, for which the GI50 in experiment [1] was 1.88 µM; in experiment [2] it was 1.76 µM; in experiment [3], 2.42 µM; in [4], 2.4 µM; in [6], 1.95 µM; in experiment [10], 0.717 µM. Besides, the GI50 in [8] is 1.38 µM. Also, the TGI was found to be 3.49 µM in experiment [1]; 3.21 µM in experiment [2]; 7.06 µM in [3]; 6.54 µM in [4]; 4.57 µM in [6]; 2.48 µM in experiment [10]. The TGI in experiment [8] is 2.72 µM.
For `CC1C(=O)CCC1C(Sc1ccccc1)(Sc1ccccc1)Sc1ccccc1` (stereo not drawn), the TGI is greater than 100 µM in experiment [1]; greater than 100 µM in [2]; 22.4 µM in [3]; 23.7 µM in experiment [4]; greater than 100 µM in experiment [5]; greater than 100 µM in [6]. The TGI was 51.3 µM in experiment [7] and 64.6 µM in experiment [8].
With `COC1OC(COCc2ccc(Cl)cc2)C(OCc2ccc(Cl)cc2)C1O` (stereo not drawn), the TGI came to 30.8 µM in experiment [1]; 40.2 µM in [2]; 46.7 µM in [3]; 32.2 µM in [4]; 32.1 µM in experiment [5]; 31.9 µM in experiment [6]. Moreover, the TGI in experiment [7] was 29.1 µM; in experiment [8], 32.8 µM.
For the compound `O=[n+]1cnn([O-])c2ccccc21`, the TGI was 42.1 µM in experiment [1]; 36.9 µM in experiment [2]; greater than 100 µM in experiment [3]; 49.9 µM in experiment [5]; 31 µM in experiment [9]; greater than 100 µM in experiment [6]. The TGI was greater than 100 µM in [10], 59.6 µM in experiment [7] and greater than 100 µM in experiment [8].
Take `CCCCCCCCCCCCCCCCc1c(C(=O)OC)[nH]c(=S)[nH]c1=O`: the TGI in experiment [1], in experiment [2], in experiment [3], in [4], in experiment [5] and in experiment [6] was greater than 50 µM each time. Further, the TGI in experiment [7] and in [8] was greater than 50 µM each time.
As to `CCCCCCCCC(=O)CCCCCCCCC(=O)O`, the TGI in experiment [1] is 64.3 µM; in [2], 59.8 µM; in experiment [3] it was greater than 100 µM; in experiment [4], 16.2 µM; in [5], 66.6 µM; in experiment [6] it was 85.8 µM. In addition, the figures for the TGI in [7] and in experiment [8] were 67.1 µM and greater than 100 µM, respectively.
On to `CC1=C(C)C(=O)c2c(cc3c4ccccc4ccn23)C1=O`, for which the TGI in [1], in experiment [2], in [5], in experiment [6], in [7] and in experiment [8] was greater than 100 µM in each case.
Turning to `O=[N+]([O-])c1ccc(Oc2cccnc2)c([N+](=O)[O-])c1`, the GI50 is 3.43 µM in [1]; 3.34 µM in experiment [2]; 3.22 µM in experiment [3]; 5.95 µM in [5]; 2.9 µM in experiment [9]; 4.28 µM in [6]. In addition, the figures for the GI50 in experiment [10], in experiment [7] and in experiment [8] were 4.98 µM, 3.8 µM and 2.76 µM, respectively. In addition, the TGI in experiment [1] came to 26.5 µM; in experiment [2], 13 µM; in experiment [3] it was 24.8 µM; in [5], 27.9 µM; in experiment [9], 11.6 µM; in experiment [6] it was 18.7 µM. The TGI in [10] was 36.4 µM; in experiment [7], 14.7 µM; in experiment [8] it was 38.4 µM.
On to `CC(=O)c1cc2c3c(c1)c1cc4c(cc1c(=O)n3CC2)OCO4`, for which the TGI in [1], in experiment [2], in [3], in experiment [4], in experiment [5] and in [6] was greater than 100 µM each time. Besides, the TGI in experiment [7] and in experiment [8] was greater than 100 µM throughout.
As to `CCOC(=O)CC(=O)N(c1ccc(OC)cc1)C(C(=O)OC)c1ccccc1` (stereo not drawn), the TGI in experiment [1], in experiment [2], in [3], in experiment [5], in experiment [6] and in [10] was greater than 100 µM in each case. Moreover, in experiment [8], the TGI was greater than 100 µM.
On to `COc1ccc(C2Cc3cc(OC)c(OC)c(OC)c3C2=O)cc1` (stereo not drawn), for which the TGI in [1], in experiment [2], in experiment [3], in experiment [5], in experiment [6] and in experiment [8] was greater than 100 µM each time.
Turning to `COC(=O)C1C2CC3C(OC(=O)C31)C2I` (stereo not drawn), the TGI in [1] is greater than 100 µM; in experiment [2] it was greater than 100 µM; in experiment [4], greater than 100 µM; in [5] it was greater than 100 µM; in [6], greater than 100 µM; in experiment [7], greater than 10 µM. In addition, the TGI in [8] was greater than 100 µM.
Take `C=CCOC1=C2CC[C@H](O)[C@@]2(C)CCC1=O`: the TGI in experiment [1], in experiment [2], in [3], in experiment [4], in experiment [5] and in experiment [7] was greater than 100 µM throughout. In [8], this compound registered a TGI greater than 100 µM.
On to `CCC1(O)C(=O)OCc2c1cc1n(c2=O)Cc2c-1nc1ccccc1c2OC` (stereo not drawn), for which the TGI in experiment [1] is 0.0249 µM; in [2] it was 0.06 µM; in experiment [3], less than 0.01 µM; in [4], less than 0.0341 µM; in experiment [5] it was less than 0.01 µM; in experiment [6], 0.0749 µM. Further, the TGI in experiment [7] is 0.11 µM; in [8] it was 0.129 µM.
As to `CCOC(=O)/C(=C/c1cc(OC)ccc1OC)CC(=O)O`, the TGI is greater than 31.6 µM in experiment [1]; greater than 100 µM in [2]; greater than 31.6 µM in [3]; greater than 31.6 µM in experiment [4]; greater than 100 µM in experiment [6]; greater than 100 µM in [7]. Also, the TGI in [8] is greater than 100 µM.
In the case of `CC(=O)NC(ON1C(=O)COc2ccccc21)C(Cl)(Cl)Cl` (stereo not drawn), the TGI in experiment [1], in [2], in [4], in [5], in experiment [6] and in experiment [8] was greater than 100 µM each time.
Regarding `NC1=NN(c2ccccc2)C(=O)C1C(=O)C(=O)NC1C2CC3CC(C2)CC1C3` (stereo not drawn), the TGI in experiment [1], in experiment [2], in experiment [3], in [4], in [5] and in experiment [6] was greater than 100 µM in each case. The TGI in experiment [7] was greater than 100 µM.
For `Cc1ccc(NC(=O)C2C(=O)C(=O)N(c3ccc(C)cc3)C2=O)cc1` (stereo not drawn), the TGI in [1], in experiment [2], in [3], in experiment [4], in [5] and in experiment [6] was greater than 100 µM throughout. Also, in [7], the TGI is greater than 100 µM.
